Assays:
[1] = tested on: Myzus persicae; test: Myzus persicae spray test (Chinese cabbage leaf discs); format: in vivo; conditions: after 6 days, aphids killed
Protocol: Myzus persicae Spray Test
Solvent: 78 parts by weight of acetone
(§1) • 1.5 parts by weight of dimethylformamide Emulsifier: alkylaryl polyglycol ether
(§2) To produce a suitable preparation of active compound, 1 part by weight of active compound is dissolved using the stated parts by weight of solvent and made up with water containing an emulsifier concentration of 1000 ppm until the desired concentration is attained. To produce further test concentrations, the preparation is diluted with emulsifier-containing water.
Discs of Chinese cabbage leaves (Brassica pekinensis) infested by all stages of the green peach aphid (Myzus persicae) are sprayed with an active compound preparation of the desired concentration.
After 6 days, the efficacy in % is determined. 100% means that all the aphids have been killed; 0% means that no aphids have been killed.

[2] = tested on: Phaedon cochleariae; test: Phaedon cochleariae spray test; format: in vivo; conditions: after 7 days, beetle larvae killed; for pest or weed control at 500 g/ha: Phaedon cochleariae, 168 h, read-out: efficacy in %
Protocol: Phaedon cochleariae-Spray Test
(§3) Solvent: 78.0 parts by weight of acetone
as §1, §2
After 7 days, the efficacy in % is determined. 100% means that all the beetle larvae have been killed; 0% means that no beetle larvae have been killed.

[3] = log P by HPLC on reversed-phase column (C18), EEC Directive 79/831 Annex V.A8
Description: Called log P (HCOOH) in the table.
Called log P (neutral) in the table.

[4] = tested on: Tetranychus urticae; test: Tetranychus urticae spray test, OP-resistant; format: in vivo; conditions: after 6 days, spider mites killed
Protocol: Tetranychus urticae-Spray Test, OP-Resistant
as §3, §1, §2
Discs of bean leaves (Phaseolus vulgaris) infested with all stages of the greenhouse red spider mite (Tetranychus urticae) are sprayed with an active compound preparation of the desired concentration.
After 6 days, the efficacy in % is determined. 100% means that all the spider mites have been killed; 0% means that no spider mites have been killed.

[5] = tested on: Spodoptera frugiperda; test: Spodoptera frugiperda spray test; format: in vivo; conditions: 500 g/ha, after 7 days, caterpillars killed
Protocol: Spodoptera frugiperda-Spray Test Solvent: 78.0 parts by weight of acetone • • 1.5 parts by weight of dimethylformamide Emulsifier: alkylaryl polyglycol ether […] To produce further test concentrations, the preparation is diluted with emulsifier-containing water. Leaf disks of maize (Zea mays) are sprayed with an active compound preparation of the desired concentration and, after drying, populated with caterpillars of the armyworm (Spodoptera frugiperda).

[6] = LC-MS acidic range, pH 2.7 (HCOOH), C18, 55° C.
[7] = LC-MS neutral range, pH 7.8, C18, 55° C.
[8] = Myzus persicae, foliar, 144 h, 500 g/ha, read-out: efficacy in %
[9] = reversed-phase HPLC column (C18), pH 2.7, logP-acidic, LC-MS acidic range, pH 2.7 (HCOOH), C18, 55° C.
[10] = reversed-phase HPLC column (C18), pH 7.8, log P (neutral), preparation examples, neutral range, pH 7.8
[11] = reversed-phase HPLC column (C18), pH 7.8, logP-neutral, LC-MS neutral range, pH 7.8, C18, 55° C.

## CCS(=O)(=O)c1ccc(N(C)N)nc1-c1nc2cc(C(F)(F)F)ncc2n1C [Example 74]
[1]; 500 g/ha
  efficacy in %: 90%
[2]; 500 g/ha
  efficacy in %: 100%
[3]; [6]
  logP-acidic: 1.96
[4]; 500 g/ha
  efficacy in %: 90%

## CCS(=O)(=O)c1ccc(N(C)C)nc1-c1nc2cc(C(F)(F)F)ncc2n1C [Example 64]
[1]; 500 g/ha
  efficacy in %: 90%
[2]; 500 g/ha
  efficacy in %: 100%
[5]
  efficacy in %: 100%
[3]; [6]
  logP-acidic: 2.55
[3]; [7]
  logP-neutral: 2.49

## CCS(=O)(=O)c1ccc(NC(=O)C[S+](C)[O-])nc1-c1nc2cc(C(F)(F)F)ncc2n1C (centres unmarked) [Example 70]
[1]; 500 g/ha
  efficacy in %: 100%
[2]; 500 g/ha
  efficacy in %: 100%
[3]; pH 2.7
  logP-acidic: 1.63
[3]; pH 7.8
  logP-neutral: 1.68

## CCS(=O)(=O)c1ccc(NC(=O)C(F)(F)C(F)(F)F)nc1-c1nc2cc(C(F)(F)F)ncc2n1C [Example 4]
[1]; 500 g/ha
  efficacy in %: 100%
[2]; 500 g/ha
  efficacy in %: 100%
[3]; [6]
  logP-acidic: 3.17
[3]; [7]
  logP-neutral: 1.94

## CCC(=O)Nc1ccc(S(=O)(=O)CC)c(-c2nc3cc(C(F)(F)F)ncc3n2C)n1 [Example 13]
[1]; 500 g/ha
  efficacy in %: 90%
[2]; 500 g/ha
  efficacy in %: 100%
[3]; pH 2.7
  logP-acidic: 2.33
[3]; pH 7.8
  logP-neutral: 2.28

## CC[S+]([O-])c1ccc(NC(C)=O)nc1-c1nc2cc(C(F)(F)F)ncc2n1C (centres unmarked) [Example 9]
[1]; 500 g/ha
  efficacy in %: 90%
[2]; 500 g/ha
  efficacy in %: 83%
[3]; pH 2.7
  logP-acidic: 2.02
[3]; pH 7.8
  logP-neutral: 1.97

## CCS(=O)(=O)c1ccc(NC(=O)c2cscn2)nc1-c1nc2cc(C(F)(F)F)ncc2n1C [Example 66]
[1]; 100 g/ha
  efficacy in %: 90%
[2]; 500 g/ha
  efficacy in %: 100%
[3]; pH 2.7
  logP-acidic: 2.60
[3]; pH 7.8
  logP-neutral: 2.58

## CCS(=O)(=O)c1ccc(C(=S)NC)nc1-c1nc2cc(C(F)(F)F)ncc2n1C [Example 34, 5-(Ethylsulphonyl)-N-methyl-6-[3-methyl-6-(trifluoromethyl)-3H-imidazo[4,5-c]pyridin-2-yl]pyridine-2-carbothioamide]
[1]; [8]
  pest or weed control at 500 g/ha: 90%
[3]; [9]
  chromatographic logP: 2.8
[3]; [10]
  chromatographic logP: 2.76
[3]; [11]
  chromatographic logP: 2.76
[4]; 500 g/ha
  efficacy in %: 100%

## CCS(=O)(=O)c1ccc(C(=O)NC2CC2)nc1-c1nc2cc(C(F)(F)F)ncc2n1C [Example 33]
[2]; 100 g/ha
  efficacy in %: 83%
[3]; pH 2.7
  logP-acidic: 2.34
[3]; pH 7.8
  logP-neutral: 2.27
[4]; 500 g/ha
  efficacy in %: 90%

## CCOCC(=O)Nc1ccc(S(=O)(=O)CC)c(-c2nc3cc(C(F)(F)F)ncc3n2C)n1 [Example 52]
[1]; 500 g/ha
  efficacy in %: 100%
[2]; 500 g/ha
  efficacy in %: 100%
[3]; pH 2.7
  logP-acidic: 2.64
[3]; pH 7.8
  logP-neutral: 2.51

## CCS(=O)(=O)c1ccc(NC(=O)C(F)(F)F)nc1-c1nc2cc(C(F)(F)F)ncc2n1C [Example 3]
[1]; 500 g/ha
  efficacy in %: 100%
[2]; 500 g/ha
  efficacy in %: 100%
[3]; pH 2.7
  logP-acidic: 2.74
[3]; pH 7.8
  logP-neutral: 1.73

## CCS(=O)(=O)c1ccc(NC(=O)C(F)F)nc1-c1nc2cc(C(F)(F)F)ncc2n1C [Example 24]
[1]; 500 g/ha
  efficacy in %: 100%
[2]; 500 g/ha
  efficacy in %: 100%
[3]; pH 2.7
  logP-acidic: 2.34
[3]; pH 7.8
  logP-neutral: 2.22
[4]; 500 g/ha
  efficacy in %: 90%

## CC[S+]([O-])c1ccc(S(=O)(=O)CC)c(-c2nc3cc(C(F)(F)F)ncc3n2C)n1 (centres unmarked) [Example 37, 2-[6-(Ethylsulphinyl)-3-(ethylsulphonyl)pyridin-2-yl]-3-methyl-6-(trifluoromethyl)-3H-imidazo[4,5-c]pyridine]
[1]; [8]
  pest or weed control at 500 g/ha: 90%
[2]; 500 g/ha
  pest or weed control at 500 g/ha: 100%
[3]; [9]
  chromatographic logP: 2.03
[3]; [10]
  chromatographic logP: 2.02
[3]; [11]
  chromatographic logP: 2.02

## CCS(=O)(=O)c1ccc(NC(=O)CC2CC2)nc1-c1nc2cc(C(F)(F)F)ncc2n1C [Example 7]
[1]; 500 g/ha
  efficacy in %: 90%
[2]; 500 g/ha
  efficacy in %: 100%
[3]; pH 2.7
  logP-acidic: 2.71
[3]; pH 7.8
  logP-neutral: 2.66

## CCS(=O)(=O)c1ccc(NC(=O)C(C)C[S+](C)[O-])nc1-c1nc2cc(C(F)(F)F)ncc2n1C (centres unmarked) [Example 57]
[1]; 500 g/ha
  efficacy in %: 90%
[2]; 500 g/ha
  efficacy in %: 100%
[3]; pH 2.7
  logP-acidic: 1.81

## CCS(=O)(=O)c1ccc(NS(=O)(=O)C(F)(F)F)nc1-c1nc2cc(C(F)(F)F)ncc2n1C [Example 58]
[3]; pH 2.7
  logP-acidic: 2.37
[3]; pH 7.8
  logP-neutral: 1.20
[4]; 500 g/ha
  efficacy in %: 90%

## CCS(=O)(=O)c1ccc(NC(=O)C(C)CS(C)(=O)=O)nc1-c1nc2cc(C(F)(F)F)ncc2n1C (centres unmarked) [Example 61]
[1]; 500 g/ha
  efficacy in %: 100%
[2]; 500 g/ha
  efficacy in %: 100%
[3]; pH 2.7
  logP-acidic: 2.02

## CCS(=O)(=O)c1ccc(N)nc1-c1nc2cc(C(F)(F)C(F)(F)F)ncc2n1C [Example 67]
[1]; 500 g/ha
  efficacy in %: 90%
[2]; 500 g/ha
  efficacy in %: 100%
[5]
  efficacy in %: 100%
[3]; pH 2.7
  logP-acidic: 2.14
[3]; pH 7.8
  logP-neutral: 2.14
[4]; 500 g/ha
  efficacy in %: 100%

## CCS(=O)(=O)c1ccc(NC(=O)C(C)C)nc1-c1nc2cc(C(F)(F)F)ncc2n1C [Example 16, N-{5-(Ethylsulphonyl)-6-[3-methyl-6-(trifluoromethyl)-3H-imidazo[4,5-c]pyridin-2-yl]pyridin-2-yl}-2-methylpropanamide]
[1]; [8]
  pest or weed control at 500 g/ha: 100%
[2]; 500 g/ha
  pest or weed control at 500 g/ha: 100%
[3]; [9]
  chromatographic logP: 2.63
[3]; [10]
  chromatographic logP: 2.61
[3]; [11]
  chromatographic logP: 2.61

## CCS(=O)(=O)c1ccc(NC(=O)COC)nc1-c1nc2cc(C(F)(F)F)ncc2n1C [Example 21]
[1]; 500 g/ha
  efficacy in %: 90%
[2]; 500 g/ha
  efficacy in %: 100%
[5]
  efficacy in %: 100%
[3]; pH 2.7
  logP-acidic: 2.22
[3]; pH 7.8
  logP-neutral: 2.17

## CCS(=O)(=O)c1ccc(NC)nc1-c1nc2cc(C(F)(F)F)ncc2n1C [Example 38]
[1]; 500 g/ha
  efficacy in %: 90%
[2]; 500 g/ha
  efficacy in %: 100%
[3]; [6]
  logP-acidic: 2.05
[3]; [7]
  logP-neutral: 2.03

## CCS(=O)(=O)c1ccc(N(C)NC)nc1-c1nc2cc(C(F)(F)F)ncc2n1C [Example 60, 1-[5-Ethylsulphonyl-6-[3-methyl-6-(trifluoromethyl)imidazo[4,5-c]pyridin-2-yl]-2-pyridyl]-1,2-dimethylhydrazine]
[1]; Myzus persicae, foliar, 144 h, 100 g/ha, read-out: efficacy in %
  pest or weed control at 100 g/ha: 90%
[2]; 500 g/ha
  pest or weed control at 500 g/ha: 100%
[3]; pH 2.7
  chromatographic logP: 2.37
[3]; pH 7.8
  chromatographic logP: 2.39
[4]; 100 g/ha
  efficacy in %: 90%

## CCS(=O)(=O)c1ccc(C(=O)NC)nc1-c1nc2cc(C(F)(F)F)ncc2n1C [Example 31, 5-(Ethylsulphonyl)-N-methyl-6-[3-methyl-6-(trifluoromethyl)-3H-imidazo[4,5-c]pyridin-2-yl]pyridine-2-carboxamide]
[1]; [8]
  pest or weed control at 500 g/ha: 100%
[2]; 500 g/ha
  pest or weed control at 500 g/ha: 100%
[3]; [9]
  chromatographic logP: 2.01
[3]; [10]
  chromatographic logP: 1.96
[3]; [11]
  chromatographic logP: 1.96
[4]; 500 g/ha
  efficacy in %: 100%

## CCS(=O)(=O)c1ccc(C(=S)NC2CC2)nc1-c1nc2cc(C(F)(F)F)ncc2n1C [Example 36]
[1]; 500 g/ha
  efficacy in %: 90%
[2]; 500 g/ha
  efficacy in %: 100%
[3]; pH 2.7
  logP-acidic: 3.17
[3]; pH 7.8
  logP-neutral: 3.14

Reference: US10654845B2, “2-(het)aryl-substituted fused bicyclic heterocycle derivatives as pesticides” (BAYER CROPSCIENCE AKTIENGESELLSCHAFT, priority 2015, dated 2020)
